Experimental data taken from ChEMBL document CHEMBL4351025, “Indole-nitroimidazole conjugates as efficient manipulators to decrease the genes expression of methicillin-resistant Staphylococcus aureus” (Eur J Med Chem, 2019).
Values after ≈ are worked out from the molar mass of the structure shown.

Experiments:
Format in all cases: functional
Escherichia coli = experiment: Antibacterial activity against Escherichia coli incubated for 24 hrs by two fold serial dilution method
Acinetobacter baumannii [1] = experiment: Antibacterial activity against Acinetobacter baumannii incubated for 24 hrs by two fold serial dilution method
Staphylococcus aureus [2] = experiment: Antibacterial activity against methicillin-resistant Staphylococcus aureus N315 incubated for 24 hrs by two fold serial dilution method; settings: N315, 24 h
Enterococcus faecalis = experiment: Antibacterial activity against Enterococcus faecalis incubated for 24 hrs by two fold serial dilution method
Staphylococcus aureus [3] = experiment: Antibacterial activity against Staphylococcus aureus ATCC 29213 incubated for 24 hrs by two fold serial dilution method; settings: ATCC 29213, 24 h
Pseudomonas aeruginosa = experiment: Antibacterial activity against Pseudomonas aeruginosa incubated for 24 hrs by two fold serial dilution method
Klebsiella pneumoniae [4] = experiment: Antibacterial activity against Klebsiella pneumoniae incubated for 24 hrs by two fold serial dilution method
Klebsiella pneumoniae [5] = experiment: Potency index, ratio of MIC for clinafloxacin to test compound MIC for antibacterial activity against Klebsiella pneumoniae
Acinetobacter baumannii [6] = experiment: Potency index, ratio of MIC for norfloxacin to test compound MIC for antibacterial activity against Acinetobacter baumannii

| SMILES | MIC (Escherichia coli) | MIC (Acinetobacter baumannii [1]) | MIC (Staphylococcus aureus [2]) | MIC (Enterococcus faecalis) | MIC (Staphylococcus aureus [3]) | MIC (Pseudomonas aeruginosa) | MIC (Klebsiella pneumoniae [4]) | Ratio (Klebsiella pneumoniae [5]) | Ratio (Acinetobacter baumannii [6]) |
| --- | --- | --- | --- | --- | --- | --- | --- | --- | --- |
| CC(=O)/C(=C/c1cn(CC(=O)N(C(C)C)C(C)C)c2ccccc12)n1cc([N+](=O)[O-])nc1C | 64 µg/mL (≈ 142 µM) | 512 µg/mL (≈ 1130 µM) | 1 µg/mL (≈ 2.21 µM) | 64 µg/mL (≈ 142 µM) | 512 µg/mL (≈ 1130 µM) | 512 µg/mL (≈ 1130 µM) | 16 µg/mL (≈ 35.4 µM) |  |  |
| CC(=O)/C(=C/c1cn(CC(=O)N2CCCC2)c2ccccc12)n1cc([N+](=O)[O-])nc1C | 8 µg/mL (≈ 19 µM) | 1 µg/mL (≈ 2.37 µM) | 64 µg/mL (≈ 152 µM) | 64 µg/mL (≈ 152 µM) | 64 µg/mL (≈ 152 µM) | 2 µg/mL (≈ 4.75 µM) | 16 µg/mL (≈ 38 µM) |  |  |
| CC(=O)/C(=C/c1cn(CC(=O)N2CCN(Cc3ccc(F)cc3)CC2)c2cc(Cl)ccc12)n1cc([N+](=O)[O-])nc1C | 512 µg/mL (≈ 884 µM) | 512 µg/mL (≈ 884 µM) | 512 µg/mL (≈ 884 µM) | 2 µg/mL (≈ 3.45 µM) | 512 µg/mL (≈ 884 µM) | 128 µg/mL (≈ 221 µM) | 512 µg/mL (≈ 884 µM) |  |  |
| CC(=O)/C(=C/c1cn(CC(=O)N2CCCCC2)c2cc(C)ccc12)n1cc([N+](=O)[O-])nc1C | 256 µg/mL (≈ 570 µM) | 256 µg/mL (≈ 570 µM) | 1 µg/mL (≈ 2.22 µM) | 128 µg/mL (≈ 285 µM) | 16 µg/mL (≈ 35.6 µM) | 32 µg/mL (≈ 71.2 µM) | 32 µg/mL (≈ 71.2 µM) |  |  |
| CCN(CC)C(=O)Cn1cc(/C=C(/C(C)=O)n2cc([N+](=O)[O-])nc2C)c2ccc(C)cc21 | 128 µg/mL (≈ 293 µM) | 512 µg/mL (≈ 1170 µM) | 4 µg/mL (≈ 9.14 µM) | 64 µg/mL (≈ 146 µM) | 16 µg/mL (≈ 36.6 µM) | 128 µg/mL (≈ 293 µM) | 512 µg/mL (≈ 1170 µM) |  |  |
| CCN(CC)C(=O)Cn1cc(/C=C(/C(C)=O)n2cc([N+](=O)[O-])nc2C)c2ccc(Cl)cc21 | 512 µg/mL (≈ 1120 µM) | 512 µg/mL (≈ 1120 µM) | 512 µg/mL (≈ 1120 µM) | 1 µg/mL (≈ 2.18 µM) | 512 µg/mL (≈ 1120 µM) | 128 µg/mL (≈ 280 µM) | 512 µg/mL (≈ 1120 µM) |  |  |
| CCn1cc(C(=O)O)c(=O)c2cc(F)c(N3CCNCC3)cc21 [NORFLOXACIN] | 16 µg/mL (≈ 50.1 µM) | 8 µg/mL (≈ 25.1 µM) | 8 µg/mL (≈ 25.1 µM) | 4 µg/mL (≈ 12.5 µM) | 2 µg/mL (≈ 6.26 µM) | 2 µg/mL (≈ 6.26 µM) | 4 µg/mL (≈ 12.5 µM) |  |  |
| C#CCn1cc(/C=C(/C(C)=O)n2cc([N+](=O)[O-])nc2C)c2ccccc21 | 512 µg/mL (≈ 1470 µM) | 128 µg/mL (≈ 367 µM) | 2 µg/mL (≈ 5.74 µM) | 32 µg/mL (≈ 91.9 µM) | 128 µg/mL (≈ 367 µM) | 128 µg/mL (≈ 367 µM) | 128 µg/mL (≈ 367 µM) |  |  |
| NC1CCN(c2c(F)cc3c(=O)c(C(=O)O)cn(C4CC4)c3c2Cl)C1 (centres undefined) [CLINAFLOXACIN] | 64 µg/mL (≈ 175 µM) | 16 µg/mL (≈ 43.7 µM) | 16 µg/mL (≈ 43.7 µM) | 2 µg/mL (≈ 5.47 µM) | 0.5 µg/mL (≈ 1.37 µM) | 32 µg/mL (≈ 87.5 µM) | 32 µg/mL (≈ 87.5 µM) |  |  |
| CC(=O)/C(=C/c1cn(CC(=O)N2CCOCC2)c2ccccc12)n1cc([N+](=O)[O-])nc1C | 32 µg/mL (≈ 73.2 µM) | 256 µg/mL (≈ 585 µM) | 2 µg/mL (≈ 4.57 µM) | 32 µg/mL (≈ 73.2 µM) | 64 µg/mL (≈ 146 µM) | 128 µg/mL (≈ 293 µM) | 16 µg/mL (≈ 36.6 µM) |  |  |
| CCN(CC)C(=O)Cn1cc(/C=C(/C(C)=O)n2cc([N+](=O)[O-])nc2C)c2ccccc21 | 16 µg/mL (≈ 37.8 µM) | 1 µg/mL (≈ 2.36 µM) | 16 µg/mL (≈ 37.8 µM) | 64 µg/mL (≈ 151 µM) | 128 µg/mL (≈ 302 µM) | 16 µg/mL (≈ 37.8 µM) | 8 µg/mL (≈ 18.9 µM) | 4 | 8 |
